# Results: patent US9125388B2, “Biological control” (Isis Innovation Limited, priority 1999, dated 2015)
# What was measured:
# Test in all cases: Recombinant chromosome experiments: parents raised on supplement, progeny on normal food, adults by sex (25, 18 or 29° C.)
# Assay type in all cases: in vivo, Drosophila melanogaster
# [1] = system: Sxl^pe-tTA, tRE-Msl-2^Nopu on the third chromosome; conditions: for Female progeny per daily vial / Female progeny Total / Male progeny Total: 25° C.; for Female progeny per daily vial: Day 1-12 on tetracycline-free food; for Female progeny Total / Male progeny Total: Day 1-12 total
# Procedure: (§1) 40-45 young females and 20-25 young males raised at 25° C. upon food with the indicated tetracycline supplement were allowed to mate, then transferred to normal (tetracycline-free) food after 3-4 days. These flies were transferred to fresh vials of normal food every day for 12 days, then removed on the 13th day. All the vials were incubated at 25° C. while the progeny developed. The numbers of male and female progeny emerging as adults in each vial were recorded.
# (§2) A standard range of additive concentrations were used in the following experiments (0.05-20 μg/ml). […] (=“not done”)
# (§3) All the preceding experiments were performed at 25° C., the standard temperature for Drosophila culture. However, the insects in the wild would clearly be exposed to varying temperatures, so we investigated the extent to which the efficiency of the system is affected by temperature. As with the recombinant chromosome experiments, 40-45 young virgin females and 20-25 young males raised at 25° C. upon food with the indicated tetracycline supplement were allowed to mate, then transferred to normal (tetracycline-free) food after 3-4 days. These flies were transferred to fresh vials of normal food every day. The numbers of male and female progeny emerging as adults in each vial were recorded. These experiments were performed at either 18° C. or 29° C.
# [2] = system: Sxl^pe-tTA, tRE-Ras64B^V12 on the third chromosome; conditions: for Female progeny Total / Male progeny Total: Day 1-12 total
# Procedure: as §1, §2, §3
# [3] = system: Hsp26 tTa, tRe Msl-1^Mpu on the 2nd chromosome
# Procedure: as §1, §2, §3
# [4] = system: Sxl^pe-tTA, tRE-Ras64B^V12 on the X chromosome; conditions: for Female progeny / Male progeny: 18° C., then tetracycline-free food; for Female progeny per daily vial / Female progeny Total / Male progeny Total: 25° C.; for Female progeny per daily vial: Day 1-12 on tetracycline-free food; for Female progeny Total / Male progeny Total: Day 1-12 total; for Female progeny emerging as adults / Male progeny emerging as adults: 29° C.
# Procedure: as §1, §2, §3
# [5] = system: Hsp26 tTa, tRe Msl-2^Nopu on the 2nd chromosome
# Procedure: as §1, §2, §3
# [6] = parents raised on Tet. 0.1 μg/ml
# [7] = parents raised on Tet. 20 μg/ml
# [8] = parents raised on Tet. 100 μg/ml
# [9] = parents raised on Tet. 500 μg/ml
# [10] = parents raised on Tet. 1000 μg/ml
# [11] = parents raised on Tet. 2000 μg/ml
# [12] = parents raised on tetracycline 0.1 μg/ml, 18° C.
# [13] = parents raised on tetracycline 0.1 μg/ml, 29° C.
# [14] = parents raised on tetracycline 1 μg/ml, 18° C.
# [15] = parents raised on tetracycline 1 μg/ml, 29° C.
# [16] = parents raised on tetracycline 5 μg/ml, 18° C.
# [17] = parents raised on tetracycline 5 μg/ml, 29° C.
# [18] = parents raised on Tet. 0.1 μg/ml, 25° C.
# [19] = parents raised on Tet. 1 μg/ml, 25° C.
# [20] = parents raised on Tet. 5 μg/ml, 25° C.
# [21] = parents raised on Tet. 20 μg/ml, 25° C.
# [22] = parents raised on Tet. 100 μg/ml, 25° C.
# [23] = parents raised on Tet. 500 μg/ml, 25° C.
# [24] = parents raised on Tet. 1000 μg/ml, 25° C.
# [25] = parents raised on Tet. 2000 μg/ml, 25° C.
# [26] = parents raised on Tetracycline 0.1 μg/ml
# [27] = parents raised on Tetracycline 1 μg/ml
# [28] = parents raised on Tetracycline 5 μg/ml
# [29] = parents raised on tetracycline 0.1 μg/ml
# [30] = parents raised on tetracycline 1 μg/ml
# [31] = parents raised on tetracycline 5 μg/ml
structure (smiles),measurement,setting,value
"CN(C)[C@@H]1C(O)=C(C(N)=O)C(=O)[C@@]2(O)C(O)=C3C(=O)c4c(O)cccc4[C@@](C)(O)[C@H]3C[C@@H]12 [Tetracycline, tetracycline]",Female progeny per daily vial,[1]; [6],0
same,Female progeny Total,[1]; [6],0
same,Male progeny Total,[1]; [6],1267
same,Female progeny per daily vial,[1]; parents raised on Tet. 1 μg/ml,0
same,Female progeny Total,[1]; parents raised on Tet. 1 μg/ml,0
same,Male progeny Total,[1]; parents raised on Tet. 1 μg/ml,1171
same,Female progeny per daily vial,[1]; parents raised on Tet. 5 μg/ml,0
same,Female progeny Total,[1]; parents raised on Tet. 5 μg/ml,0
same,Male progeny Total,[1]; parents raised on Tet. 5 μg/ml,1165
same,Female progeny per daily vial,[1]; [7],0
same,Female progeny Total,[1]; [7],0
same,Male progeny Total,[1]; [7],1127
same,Female progeny per daily vial,[1]; [8],0
same,Female progeny Total,[1]; [8],0
same,Male progeny Total,[1]; [8],1168
same,Female progeny per daily vial,[1]; [9],0
same,Female progeny Total,[1]; [9],0
same,Male progeny Total,[1]; [9],1137
same,Female progeny Total,[1]; [10],3
same,Male progeny Total,[1]; [10],1309
same,Female progeny Total,[1]; [11],32
same,Male progeny Total,[1]; [11],1325
same,Female progeny emerging as adults,[1]; [12],2
same,Male progeny emerging as adults,[1]; [12],973
same,Female progeny emerging as adults,[1]; [13],0
same,Male progeny emerging as adults,[1]; [13],749
same,Female progeny emerging as adults,[1]; [14],9
same,Male progeny emerging as adults,[1]; [14],985
same,Female progeny emerging as adults,[1]; [15],0
same,Male progeny emerging as adults,[1]; [15],737
same,Female progeny emerging as adults,[1]; [16],5
same,Male progeny emerging as adults,[1]; [16],983
same,Female progeny emerging as adults,[1]; [17],0
same,Male progeny emerging as adults,[1]; [17],718
same,Female progeny per daily vial,"[2]; parents raised on Tet. 0.1 μg/ml, 25° C., Day 1-12 on tetracycline-free food",0
same,Female progeny Total,[2]; [18],0
same,Male progeny Total,[2]; [18],1541
same,Female progeny per daily vial,"[2]; parents raised on Tet. 1 μg/ml, 25° C., Day 1-12 on tetracycline-free food",0
same,Female progeny Total,[2]; [19],0
same,Male progeny Total,[2]; [19],1441
same,Female progeny per daily vial,"[2]; parents raised on Tet. 5 μg/ml, 25° C., Day 1-12 on tetracycline-free food",0
same,Female progeny Total,[2]; [20],0
same,Male progeny Total,[2]; [20],1421
same,Female progeny per daily vial,"[2]; parents raised on Tet. 20 μg/ml, 25° C., Day 1-12 on tetracycline-free food",0
same,Female progeny Total,[2]; [21],0
same,Male progeny Total,[2]; [21],1487
same,Female progeny per daily vial,"[2]; parents raised on Tet. 100 μg/ml, 25° C., Day 1-12 on tetracycline-free food",0
same,Female progeny Total,[2]; [22],0
same,Male progeny Total,[2]; [22],1416
same,Female progeny Total,[2]; [23],72
same,Male progeny Total,[2]; [23],1388
same,Female progeny Total,[2]; [24],87
same,Male progeny Total,[2]; [24],1416
same,Male progeny per daily vial,"[2]; parents raised on Tet. 2000 μg/ml, 25° C., Day 1-12 on tetracycline-free food, listed as Tet.",123
same,Female progeny Total,[2]; [25],161
same,Male progeny Total,[2]; [25],1438
same,Female progeny emerging as adults,[2]; [12],6
same,Male progeny emerging as adults,[2]; [12],1065
same,Female progeny emerging as adults,[2]; [13],0
same,Male progeny emerging as adults,[2]; [13],781
same,Female progeny emerging as adults,[2]; [14],9
same,Male progeny emerging as adults,[2]; [14],1124
same,Female progeny emerging as adults,[2]; [15],0
same,Male progeny emerging as adults,[2]; [15],749
same,Female progeny emerging as adults,[2]; [16],7
same,Male progeny emerging as adults,[2]; [16],989
same,Female progeny emerging as adults,[2]; [17],0
same,Male progeny emerging as adults,[2]; [17],741
same,Female progeny emerging as adults,[3]; [12],6
same,Male progeny emerging as adults,[3]; [12],628
same,Female progeny emerging as adults,[3]; [13],0
same,Male progeny emerging as adults,[3]; [13],733
same,Female progeny emerging as adults,[3]; [14],3
same,Male progeny emerging as adults,[3]; [14],614
same,Female progeny emerging as adults,[3]; [15],0
same,Male progeny emerging as adults,[3]; [15],776
same,Female progeny emerging as adults,[3]; [16],5
same,Male progeny emerging as adults,[3]; [16],712
same,Female progeny emerging as adults,[3]; [17],0
same,Male progeny emerging as adults,[3]; [17],728
same,Female progeny,[4]; [26],8
same,Male progeny,[4]; [26],982
same,Female progeny,[4]; [27],10
same,Male progeny,[4]; [27],912
same,Female progeny,[4]; [28],7
same,Male progeny,[4]; [28],871
same,Female progeny per daily vial,[4]; [6],0
same,Female progeny Total,[4]; [6],0
same,Male progeny Total,[4]; [6],1262
same,Female progeny per daily vial,[4]; parents raised on Tet. 1 μg/ml,0
same,Female progeny Total,[4]; parents raised on Tet. 1 μg/ml,0
same,Male progeny Total,[4]; parents raised on Tet. 1 μg/ml,1399
same,Female progeny per daily vial,[4]; parents raised on Tet. 5 μg/ml,0
same,Female progeny Total,[4]; parents raised on Tet. 5 μg/ml,0
same,Male progeny Total,[4]; parents raised on Tet. 5 μg/ml,1359
same,Female progeny per daily vial,[4]; [7],0
same,Female progeny Total,[4]; [7],0
same,Male progeny Total,[4]; [7],1398
same,Female progeny per daily vial,[4]; [8],0
same,Female progeny Total,[4]; [8],0
same,Male progeny Total,[4]; [8],1469
same,Female progeny Total,[4]; [9],25
same,Male progeny Total,[4]; [9],1478
same,Female progeny Total,[4]; [10],49
same,Male progeny Total,[4]; [10],1349
same,Female progeny Total,[4]; [11],92
same,Male progeny Total,[4]; [11],1439
same,Female progeny emerging as adults,[4]; [29],0
same,Male progeny emerging as adults,[4]; [29],716
same,Female progeny emerging as adults,[4]; [30],0
same,Male progeny emerging as adults,[4]; [30],711
same,Female progeny emerging as adults,[4]; [31],0
same,Male progeny emerging as adults,[4]; [31],715
same,Female progeny emerging as adults,[5]; [12],8
same,Male progeny emerging as adults,[5]; [12],832
same,Female progeny emerging as adults,[5]; [13],0
same,Male progeny emerging as adults,[5]; [13],696
same,Female progeny emerging as adults,[5]; [14],7
same,Male progeny emerging as adults,[5]; [14],879
same,Female progeny emerging as adults,[5]; [15],0
same,Male progeny emerging as adults,[5]; [15],658
same,Female progeny emerging as adults,[5]; [16],4
same,Male progeny emerging as adults,[5]; [16],818
same,Female progeny emerging as adults,[5]; [17],0
same,Male progeny emerging as adults,[5]; [17],711
